Where two headings read alike, the source gives them in different places.
Legend:
[1] = target: T1, Syk kinase (Homo sapiens, UniProt P43405); experiment: Syk kinase biochemical fluorescence polarization assay; settings: isolated Syk kinase; for IC50: fluorescence polarization, 4 uM ATP
T1 construct: purchased Upstate, Lake Placid NY

[2] = tested on: cultured human mast cells (CHMC); experiment: CHMC low cell density IgE activation: tryptase assay; format: cell-based; settings: read-out: CHMC anti-IgE Tryptase
Summary of the method: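 Degranulation was triggered with anti-IgE for 30 minutes at 37° C in cultured human mast cells seeded at low density (1000-1500 cells/well, chosen by donor) after a 1 hr equilibration in MT buffer. Released tryptase in cleared supernatant was quantified with a tryptase substrate at room temperature for 30 minutes.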

[3] = tested on: Human Jurkat T-cells (clone N); experiment: Jurkat T-cell activation (anti-TCR, CD69 upregulation); format: cell-based
Summary of the method: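 Readout is CD69 upregulation by flow cytometry (anti-CD69-APC, 20 min at 4 °C) after 20 h anti-TCR (C305, 500 ng/ml) stimulation at 37 °C.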

[4] = tested on: cultured human mast cells (CHMC); experiment: CHMC low cell density ionomycin activation: tryptase assay; format: cell-based; settings: Low Density, read-out: CHMC Ionomycin Tryptase
[5] = Homo sapiens, Mast cell, Low Density

SMILES | IC50 [1] [µM] | IC50 [3] [µM] | further results
CNC(=O)COc1cccc(Nc2ncc(F)c(Nc3ccc4c(c3)C(O)CCC4)n2)c1 (racemic) [Compound R926949] | 0.076 |  | 
NC1CCOc2ccc(Nc3nc(Nc4ccc(Cl)c(Cl)c4)ncc3F)cc21 (racemic) [Compound R950430] | 0.15 |  | IC50 ([2]; low cell density): 0.239 µM
CNC(=O)COc1cccc(Nc2ncc(F)c(Nc3ccc4c(c3)NC(=O)CO4)n2)c1 [Compound R908701] | 0.022 | 0.302 | 
CC1(C)C(=O)NC(=O)c2cc(Nc3nc(Nc4ccc5cn[nH]c5c4)ncc3F)ccc21 [Compound R908956] | 1.18 |  | IC50 ([2]; low cell density): 0.34 µM
CN(C)CCOc1ccc(Nc2ncc(F)c(Nc3cccc(O)c3)n2)cc1 [Compound R909236] | 2.07 | > 10 | Syk kinase catalyzed phosphorylation of a peptide substrate, IC50s [1]: micromolar range
CNC(=O)COc1cccc(Nc2ncc(F)c(Nc3ccc4c(c3)NC(C)(C)CO4)n2)c1 [Compound R909309] | 0.09 |  | 
Cc1cnc(Nc2ccc3c(c2)OCCO3)nc1Nc1ccc2c(c1)OCCO2 [Compound R926242] | 1.81 |  | IC50 ([3]; Homo sapiens, Jurkat): 3.82 µM
CCOC(=O)c1cnc(Nc2ccc3c(c2)OCCO3)nc1Nc1ccc2c(c1)OCCO2 [Compound R926252] | > 10 |  | IC50 ([3]; Homo sapiens, Jurkat): > 10 µM
CCOC(=O)c1cnc(Nc2cccc3cn[nH]c23)nc1Nc1cccc2cn[nH]c12 [Compound R926321] | 5050 | 1.29 | 
O=C(c1cc2cc(Nc3ncc(F)c(Nc4cccc(O)c4)n3)ccc2o1)N1CCNCC1 [Compound R926500] | 0.929 | 2.37 | 
CCOC(=O)c1cnc(Nc2ccc(OCC(=O)N3CCCC3)cc2)nc1Nc1ccc(OCC(=O)N2CCCC2)cc1 [Compound R926562] | > 10 | 1.25 | 
Oc1c(Cl)cc(Nc2ncc(F)c(Nc3ccc4c(c3)OCCO4)n2)cc1Cl [Compound R926763] | 0.024 |  | IC50 ([3]; Homo sapiens, Jurkat): 3.72 µM
COc1cc(Nc2ncc(F)c(Nc3cccc(O)c3)n2)cc(OC)c1 [Compound R926780] | 0.107 | 2.16 | 
CCOC(=O)COc1cccc(Nc2ncc(C(=O)OCC)c(Nc3ccc4c(c3)OCCO4)n2)c1 [Compound R926797] | > 10 | > 10 | 
CCOC(=O)COc1cccc(Nc2ncc(C(=O)OCC)c(Nc3cccc(O)c3)n2)c1 [Compound R926798] | > 10 | > 10 | 
Fc1cnc(Cl)nc1Nc1ccc2c(c1)CNCC2 [Compound R926912] |  |  | IC50 ([3]; Homo sapiens): > 10 µM; IC50 ([4]; Homo sapiens, Mast cell): > 10 µM; IC50 ([2]; Homo sapiens, Mast cell): > 10 µM
Cc1ccc(Nc2nc(Cl)ncc2F)cc1C(F)(F)F [Compound R926920] |  |  | IC50 ([3]; Homo sapiens, Jurkat): > 10 µM; IC50 ([4]; Homo sapiens, Mast cell): > 10 µM; IC50 [2, 5]: > 10 µM
Cc1cc(Nc2nc(Cl)ncc2F)ccc1F [Compound R926921] |  |  | IC50 ([3]; Homo sapiens, Jurkat): > 10 µM; IC50 ([4]; Homo sapiens, Mast cell): > 10 µM; IC50 [2, 5]: 99 µM
COc1ccc(Nc2ncc(F)c(Nc3ccc(OC)c(Cl)c3)n2)cc1Cl [Compound R926946] | 10.2 |  | IC50 ([3]; Homo sapiens, Jurkat): 9.4 µM
COC(=O)C1Cc2cc(Nc3ncc(F)c(Nc4ccc(OC(F)(F)F)c(Cl)c4)n3)ccc2O1 (stereo not shown) [Compound R926953] | 3.05 |  | 
CNC(=O)COc1cccc(Nc2ncc(F)c(Nc3cc(C)ccn3)n2)c1 [Compound R927016] | 0.954 | 7.16 | 

SMILES | IC50 [1] [µM] | IC50 [3] [µM] | further results
Cc1ccc(Nc2nc(Nc3cccc(O)c3)ncc2F)nc1 [Compound R927017] | 2.35 |  | IC50 ([3]; Homo sapiens, Jurkat): 8.16 µM
Oc1cccc(Nc2ncc(F)c(Nc3ccc(Cl)cn3)n2)c1 [Compound R927020] | > 10 |  | 
CNC(=O)COc1cccc(Nc2ncc(F)c(Nc3ccc(Cl)c(OC)c3)n2)c1 [Compound R927042] | 0.051 |  | 
Cc1cccc(C)c1Nc1ncc(F)c(Nc2cccc(N)n2)n1 [Compound R927078] | 0.222 |  | IC50 ([2]; low cell density): 0.245 µM
CNC(=O)COc1cccc(Nc2ncc(F)c(Nc3cccc(N)n3)n2)c1 [Compound R927080] | 0.254 |  | IC50 ([2]; low cell density): 0.204 µM
Oc1cccc(Nc2ncc(F)c(NC(c3ccc(Cl)cc3)c3ccc(Cl)cc3)n2)c1 [Compound R935019] |  | > 10 | IC50 [4]: > 10 µM; IC50 ([2]; Low Density): 8.8 µM
COc1cc(Nc2nc(Nc3cccc(OCCO)c3)ncc2F)cc(OC)c1 [Compound R935181] |  | 8.98 | IC50 [4]: > 10 µM; IC50 ([2]; Low Density): 1.76 µM
OCCOc1cccc(Nc2ncc(F)c(Nc3ccc4c(c3)OCCCO4)n2)c1 [Compound R935186] |  | 1.09 | IC50 [4]: > 10 µM; IC50 ([2]; Low Density): 0.211 µM
Fc1cnc(Nc2ccc3[nH]ncc3c2)nc1Nc1ccc2[nH]ncc2c1 [Compound R935189] | 0.354 | 0.736 | 
Cn1ncc2cc(Nc3ncc(F)c(Nc4ccc5c(c4)OCCO5)n3)ccc21 [Compound R935193] | 0.11 | 1.6 | 
CNC(=O)COc1cccc(Nc2ncc(F)c(Nc3ccc4c(c3)OCCCO4)n2)c1 [Compound R935202] | 0.035 | 1.94 | 
CCOC(=O)CCn1ncc2ccc(Nc3ncc(F)c(Nc4ccc(OC(C)C)cc4)n3)cc21 [Compound R935289] |  | 5.34 | IC50 [4]: > 10 µM; IC50 ([2]; Low Density): 1.69 µM
Fc1cnc(Nc2ccc3[nH]ncc3c2)nc1Nc1ccc(OC(F)(F)F)c(Cl)c1 [Compound R935366] | 0.38 | 4.18 | 
Cn1ncc2cc(Nc3ncc(F)c(Nc4ccc(Cl)nc4)n3)ccc21 [Compound R935375] | 2.8 |  | 
Fc1cc(Nc2nc(Nc3ccc4cn[nH]c4c3)ncc2F)ccc1Cl [Compound R935414] | 0.152 |  | IC50 ([2]; low cell density): 0.204 µM
COc1cc(Nc2nc(Nc3ccc4cn[nH]c4c3)ncc2F)ccc1F [Compound R935416] | 0.196 |  | IC50 ([2]; low cell density): 0.166 µM
CCOC(=O)CCn1ncc2cc(Nc3ncc(F)c(Nc4ccc5c(c4)NC(=O)C(C)(C)O5)n3)ccc21 [Compound R935431] | 0.132 |  | IC50 ([2]; low cell density): 0.124 µM
COC(=O)Cn1ncc2cc(Nc3ncc(F)c(Nc4ccc5c(c4)NC(=O)C(C)(C)O5)n3)ccc21 [Compound R935436] | 0.064 |  | IC50 ([2]; low cell density): 0.058 µM
CNC(=O)Cn1ncc2cc(Nc3ncc(F)c(Nc4ccc5c(c4)NC(=O)C(C)(C)O5)n3)ccc21 [Compound R935437] | 0.127 |  | IC50 ([2]; low cell density): 0.082 µM
COC(=O)[C@H](Cc1ccc(O)cc1)Nc1nc(N(C)C)ncc1F [Compound R940110] |  | > 10 | IC50 [4]: > 10 µM; IC50 ([2]; Low Density): > 10 µM
CC(C)(C)C(=O)Nc1cccc(Nc2ncc(F)c(Nc3cccc(O)c3)n2)c1 [Compound R940275] |  | 16.4 | IC50 [4]: > 10 µM; IC50 ([2]; Low Density): 0.862 µM

SMILES | IC50 [1] [µM] | IC50 [3] [µM] | further results
CC1(C)Oc2ccc(Nc3nc(Nc4ccc5c(c4)NC(=O)C(F)(F)O5)ncc3F)cc2NC1=O [Compound R940351] | 0.25 |  | 
COC(=O)c1cc2cc(Nc3ncc(F)c(Nc4ccc5c(c4)NC(=O)C(F)(F)O5)n3)ccc2o1 [Compound R940353] | 0.325 | 20.7 | 
COc1ccc(Nc2ncc(F)c(Nc3ccc4c(n3)NC(=O)C(C)(C)O4)n2)cc1Cl [Compound R940371] | 3.64 |  | IC50 ([2]; low cell density): 0.316 µM
COc1cc(Nc2ncc(F)c(Nc3ccc4c(n3)NC(=O)C(C)(C)O4)n2)cc(OC)c1 [Compound R940372] | 0.253 |  | IC50 ([2]; low cell density): 0.094 µM
CC1(C)Oc2ccc(Nc3nc(Nc4ccc(Cl)c(Cl)c4)ncc3F)nc2NC1=O [Compound R940373] | > 10 |  | 
CC1(C)Oc2ccc(Nc3nc(Nc4ccc5cn[nH]c5c4)ncc3F)nc2NC1=O [Compound R940380] | 0.029 |  | 
CC1(C)Oc2ccc(Nc3nc(Nc4cccc(C(C)(C)C)c4)ncc3F)nc2NC1=O [Compound R940381] | 5000 |  | 
OCCOc1ccc(Nc2ncc(F)c(Nc3ccc4c(c3)OCCO4)n2)cc1 [Compound R945144] |  | 1.66 | IC50 [4]: > 10 µM; IC50 ([2]; Low Density): 0.244 µM
Oc1cccc(Nc2ncc(F)c(NCc3cccnc3)n2)c1 [Compound R945147] |  | > 10 | IC50 [4]: > 10 µM; IC50 ([2]; Low Density): 3.55 µM
COc1c(C)cc(Nc2nc(Nc3cccc(OCCN4CCNCC4)c3)ncc2F)cc1C [Compound R945157] | 1.76 |  | 
O=C1COc2ccc(Nc3nc(Cl)ncc3F)nc2N1 [Compound R945298] |  |  | IC50 ([3]; Homo sapiens, Jurkat): 9.47 µM; IC50 ([4]; Homo sapiens, Mast cell): > 10 µM; IC50 [2, 5]: > 10 µM
CNC(=O)COc1cccc(Nc2ncc(F)c(Nc3ccc4c(n3)NCCO4)n2)c1 [Compound R945299] | 0.022 | 1.06 | 
CCOc1ccc(Nc2ncc(F)c(Nc3ccc4c(n3)NC(=O)CO4)n2)cc1 [Compound R945407] | > 10 |  | 
COc1ccc(Nc2ncc(F)c(Nc3ccc4c(n3)NC(=O)CO4)n2)cc1OC [Compound R945422] | 0.087 |  | 
CC(C)c1cccc(Nc2ncc(F)c(Nc3ccc4c(n3)NC(=O)CO4)n2)c1 [Compound R945434] | > 10 |  | 
Nc1cc(Nc2ncc(F)c(Nc3ccc(Nc4ccccc4)c(N)c3)n2)ccc1Nc1ccccc1 [Compound R950125] |  | > 10 | IC50 [4]: 6.3 µM; IC50 ([2]; Low Density): 1.38 µM
Nc1cccc(Nc2nc(Nc3cccc(NCCO)c3)ncc2F)c1 [Compound R950180] |  | 2.87 | IC50 [4]: > 10 µM; IC50 ([2]; Low Density): 0.278 µM
O=C(O)CNc1cccc(Nc2ncc(F)c(Nc3cccc(OCCO)c3)n2)c1 [Compound R950230] |  | 8.23 | IC50 [4]: > 10 µM; IC50 ([2]; Low Density): 7.91 µM
CNC(=O)COc1cccc(Nc2ncc(F)c(Nc3ccc4c(c3)C(O)CCO4)n2)c1 (stereo not shown) [Compound R950349] | 0.033 | 0.363 | 
